Source: PubChem BioAssay (NCI)
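Cells were grown in 96-well plates and exposed to each compound for 48 hours at five concentrations; endpoints were interpolated linearly between bracketing concentrations, or set to the highest concentration if not reached. TGI: concentration producing complete growth inhibition.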

Tests used:
Assay in all cases: NCI-60 cell line screen, 48 h
COLO 205 colon = test system: COLO 205 colon
NCI-H460 lung = test system: NCI-H460 lung
NCI-H226 lung = test system: NCI-H226 lung
SK-MEL-28 melanoma = test system: SK-MEL-28 melanoma
U251 CNS = test system: U251 CNS
MDA-N = test system: MDA-N
CAKI-1 renal = test system: CAKI-1 renal
BT-549 breast = test system: BT-549 breast
TK-10 renal = test system: TK-10 renal
HOP-62 NSCLC = test system: HOP-62 NSCLC
SF-295 CNS = test system: SF-295 CNS
SN12C renal = test system: SN12C renal
ACHN renal = test system: ACHN renal
SNB-19 CNS = test system: SNB-19 CNS
A549 NSCLC = test system: A549 NSCLC
M14 melanoma = test system: M14 melanoma
MDA-MB-435 = test system: MDA-MB-435
MOLT-4 leukemia = test system: MOLT-4 leukemia
MALME-3M melanoma = test system: MALME-3M melanoma
DU-145 prostate = test system: DU-145 prostate
K-562 leukemia = test system: K-562 leukemia
HOP-92 NSCLC = test system: HOP-92 NSCLC
HCT-15 colon = test system: HCT-15 colon
SNB-75 CNS = test system: SNB-75 CNS
SF-539 CNS = test system: SF-539 CNS
HT29 colon = test system: HT29 colon
MDA-MB-231 breast = test system: MDA-MB-231 breast
RPMI-8226 leukemia = test system: RPMI-8226 leukemia
A498 renal = test system: A498 renal
SK-MEL-5 melanoma = test system: SK-MEL-5 melanoma
PC-3 prostate = test system: PC-3 prostate
OVCAR-3 ovarian = test system: OVCAR-3 ovarian
SF-268 CNS = test system: SF-268 CNS
NCI-H23 lung = test system: NCI-H23 lung
SR leukemia = test system: SR leukemia
OVCAR-5 ovarian = test system: OVCAR-5 ovarian
IGROV1 ovarian = test system: IGROV1 ovarian
UACC-257 melanoma = test system: UACC-257 melanoma
SK-OV-3 ovarian = test system: SK-OV-3 ovarian
UO-31 renal = test system: UO-31 renal
OVCAR-8 ovarian = test system: OVCAR-8 ovarian
EKVX NSCLC = test system: EKVX NSCLC
NCI/ADR-RES ovarian = test system: NCI/ADR-RES ovarian
UACC-62 melanoma = test system: UACC-62 melanoma
LOX IMVI melanoma = test system: LOX IMVI melanoma
CCRF-CEM leukemia = test system: CCRF-CEM leukemia
RXF 393 renal = test system: RXF 393 renal
SW-620 colon = test system: SW-620 colon
786-0 renal = test system: 786-0 renal
HCC-2998 colon = test system: HCC-2998 colon
OVCAR-4 ovarian = test system: OVCAR-4 ovarian
MCF7 breast = test system: MCF7 breast
T-47D breast = test system: T-47D breast
HCT-116 colon = test system: HCT-116 colon
KM12 colon = test system: KM12 colon
HS 578T breast = test system: HS 578T breast
SK-MEL-2 melanoma = test system: SK-MEL-2 melanoma
HL-60(TB) leukemia = test system: HL-60(TB) leukemia
NCI-H522 lung = test system: NCI-H522 lung

Q: O=C(O)C1CC(C2CCCCN2)CN2CCCCC12 (stereo not given) was tested. Which TGI (COLO 205 colon) did it give?
A: > 100 µM

Q: What about the TGI (NCI-H460 lung) of the same molecule?
A: > 100 µM

Q: What about the TGI (NCI-H226 lung) of the same molecule?
A: > 100 µM

Q: And the TGI (SK-MEL-28 melanoma)?
A: > 100 µM

Q: What about the TGI (U251 CNS) of the same molecule?
A: > 100 µM

Q: What about the TGI (MDA-N) of the same molecule?
A: > 100 µM

Q: What about the TGI (CAKI-1 renal) of the same molecule?
A: > 100 µM

Q: And the TGI (BT-549 breast)?
A: > 100 µM

Q: What about the TGI (TK-10 renal) of the same molecule?
A: > 100 µM

Q: And the TGI (HOP-62 NSCLC)?
A: > 100 µM

Q: And the TGI (SF-295 CNS)?
A: > 100 µM

Q: What about the TGI (SN12C renal) of the same molecule?
A: > 100 µM

Q: And the TGI (ACHN renal)?
A: > 100 µM

Q: And the TGI (SNB-19 CNS)?
A: > 100 µM

Q: What about the TGI (A549 NSCLC) of the same molecule?
A: > 100 µM

Q: And the TGI (M14 melanoma)?
A: > 100 µM

Q: And the TGI (MDA-MB-435)?
A: > 100 µM

Q: And the TGI (MOLT-4 leukemia)?
A: > 100 µM

Q: What about the TGI (MALME-3M melanoma) of the same molecule?
A: > 100 µM

Q: And the TGI (DU-145 prostate)?
A: > 100 µM

Q: And the TGI (K-562 leukemia)?
A: > 100 µM

Q: And the TGI (HOP-92 NSCLC)?
A: > 100 µM

Q: And the TGI (HCT-15 colon)?
A: > 100 µM

Q: And the TGI (SNB-75 CNS)?
A: > 100 µM

Q: And the TGI (SF-539 CNS)?
A: > 100 µM

Q: What about the TGI (HT29 colon) of the same molecule?
A: > 100 µM

Q: What about the TGI (MDA-MB-231 breast) of the same molecule?
A: > 100 µM

Q: And the TGI (RPMI-8226 leukemia)?
A: > 100 µM

Q: And the TGI (A498 renal)?
A: > 100 µM

Q: What about the TGI (SK-MEL-5 melanoma) of the same molecule?
A: > 100 µM

Q: And the TGI (PC-3 prostate)?
A: > 100 µM

Q: And the TGI (OVCAR-3 ovarian)?
A: > 100 µM

Q: What about the TGI (SF-268 CNS) of the same molecule?
A: > 100 µM

Q: What about the TGI (NCI-H23 lung) of the same molecule?
A: > 100 µM

Q: What about the TGI (SR leukemia) of the same molecule?
A: > 100 µM

Q: What about the TGI (OVCAR-5 ovarian) of the same molecule?
A: > 100 µM

Q: What about the TGI (IGROV1 ovarian) of the same molecule?
A: > 100 µM

Q: And the TGI (UACC-257 melanoma)?
A: > 100 µM

Q: And the TGI (SK-OV-3 ovarian)?
A: > 100 µM

Q: And the TGI (UO-31 renal)?
A: > 100 µM

Q: And the TGI (OVCAR-8 ovarian)?
A: > 100 µM

Q: What about the TGI (EKVX NSCLC) of the same molecule?
A: > 100 µM

Q: And the TGI (NCI/ADR-RES ovarian)?
A: > 100 µM

Q: And the TGI (UACC-62 melanoma)?
A: > 100 µM

Q: And the TGI (LOX IMVI melanoma)?
A: > 100 µM

Q: And the TGI (CCRF-CEM leukemia)?
A: > 100 µM

Q: And the TGI (RXF 393 renal)?
A: > 100 µM

Q: What about the TGI (SW-620 colon) of the same molecule?
A: > 100 µM

Q: What about the TGI (786-0 renal) of the same molecule?
A: > 100 µM

Q: What about the TGI (HCC-2998 colon) of the same molecule?
A: > 100 µM

Q: And the TGI (OVCAR-4 ovarian)?
A: > 100 µM

Q: What about the TGI (MCF7 breast) of the same molecule?
A: > 100 µM

Q: What about the TGI (T-47D breast) of the same molecule?
A: > 100 µM

Q: What about the TGI (HCT-116 colon) of the same molecule?
A: > 100 µM

Q: And the TGI (KM12 colon)?
A: > 100 µM

Q: And the TGI (HS 578T breast)?
A: > 100 µM

Q: What about the TGI (SK-MEL-2 melanoma) of the same molecule?
A: > 100 µM

Q: With CC(=O)Nc1c2sscc-2n(C)c1=O as the molecule, how does the TGI (COLO 205 colon) read?
A: 1.84 µM

Q: What about the TGI (NCI-H460 lung) of the same molecule?
A: 1.32 µM

Q: What about the TGI (HL-60(TB) leukemia) of the same molecule?
A: 5.9 µM

Q: What about the TGI (NCI-H226 lung) of the same molecule?
A: 3.4 µM

Q: What about the TGI (SK-MEL-28 melanoma) of the same molecule?
A: 2.69 µM

Q: And the TGI (U251 CNS)?
A: 2.54 µM

Q: And the TGI (MDA-N)?
A: 3.13 µM

Q: What about the TGI (CAKI-1 renal) of the same molecule?
A: 3.36 µM

Q: And the TGI (BT-549 breast)?
A: 2.76 µM

Q: And the TGI (TK-10 renal)?
A: 4.83 µM

Q: And the TGI (HOP-62 NSCLC)?
A: 3.15 µM

Q: And the TGI (SF-295 CNS)?
A: 2.65 µM

Q: And the TGI (SN12C renal)?
A: 3.37 µM

Q: And the TGI (ACHN renal)?
A: 12.1 µM

Q: What about the TGI (SNB-19 CNS) of the same molecule?
A: 3.45 µM

Q: What about the TGI (A549 NSCLC) of the same molecule?
A: 3.56 µM

Q: What about the TGI (M14 melanoma) of the same molecule?
A: 0.865 µM

Q: What about the TGI (MDA-MB-435) of the same molecule?
A: 2.51 µM

Q: And the TGI (MOLT-4 leukemia)?
A: 0.275 µM

Q: And the TGI (MALME-3M melanoma)?
A: 2.19 µM

Q: And the TGI (DU-145 prostate)?
A: 5.54 µM

Q: What about the TGI (K-562 leukemia) of the same molecule?
A: 5.71 µM

Q: And the TGI (HOP-92 NSCLC)?
A: 3.7 µM

Q: What about the TGI (HCT-15 colon) of the same molecule?
A: 2.66 µM

Q: What about the TGI (SNB-75 CNS) of the same molecule?
A: 3.05 µM

Q: And the TGI (SF-539 CNS)?
A: 3.52 µM

Q: And the TGI (HT29 colon)?
A: 0.692 µM

Q: What about the TGI (MDA-MB-231 breast) of the same molecule?
A: 3.54 µM

Q: And the TGI (RPMI-8226 leukemia)?
A: 4.48 µM

Q: What about the TGI (A498 renal) of the same molecule?
A: 3.27 µM

Q: What about the TGI (SK-MEL-5 melanoma) of the same molecule?
A: 3.38 µM

Q: And the TGI (PC-3 prostate)?
A: 2.97 µM

Q: And the TGI (OVCAR-3 ovarian)?
A: 3.3 µM

Q: What about the TGI (SF-268 CNS) of the same molecule?
A: 3.09 µM

Q: And the TGI (NCI-H23 lung)?
A: 2.28 µM

Q: What about the TGI (OVCAR-5 ovarian) of the same molecule?
A: 3 µM

Q: What about the TGI (IGROV1 ovarian) of the same molecule?
A: 4.65 µM

Q: What about the TGI (UACC-257 melanoma) of the same molecule?
A: 2.97 µM

Q: What about the TGI (SK-OV-3 ovarian) of the same molecule?
A: 2.84 µM

Q: And the TGI (UO-31 renal)?
A: 3.58 µM

Q: What about the TGI (OVCAR-8 ovarian) of the same molecule?
A: 1.36 µM

Q: And the TGI (NCI-H522 lung)?
A: 2.65 µM

Q: What about the TGI (EKVX NSCLC) of the same molecule?
A: 3.68 µM

Q: What about the TGI (NCI/ADR-RES ovarian) of the same molecule?
A: 4.22 µM

Q: And the TGI (UACC-62 melanoma)?
A: 5.36 µM

Q: What about the TGI (LOX IMVI melanoma) of the same molecule?
A: 3.39 µM

Q: What about the TGI (CCRF-CEM leukemia) of the same molecule?
A: 1.51 µM

Q: And the TGI (RXF 393 renal)?
A: 3.18 µM

Q: And the TGI (SW-620 colon)?
A: 1.83 µM

Q: And the TGI (786-0 renal)?
A: 3.24 µM

Q: And the TGI (HCC-2998 colon)?
A: 1.89 µM

Q: And the TGI (OVCAR-4 ovarian)?
A: 2.96 µM

Q: What about the TGI (MCF7 breast) of the same molecule?
A: 1.69 µM

Q: What about the TGI (T-47D breast) of the same molecule?
A: 3.19 µM

Q: And the TGI (HCT-116 colon)?
A: 1.96 µM

Q: And the TGI (KM12 colon)?
A: 2.6 µM

Q: What about the TGI (HS 578T breast) of the same molecule?
A: 10.3 µM

Q: And the TGI (SK-MEL-2 melanoma)?
A: 3.36 µM
